A compilation of properties of binary mixtures (doi:10.1016/j.fluid.2020.112621)

Assay: xn = mol fraction of the nth substance listed
Details: 101 kPa

CCC(=O)O.CCC(=O)[O-].CC[NH+](CC)CCO + CCCC[n+]1ccn(C)c1.COP(=O)([O-])OC
viscosity [mPa·s]
Details	x1 = 0.08	x1 = 0.1549	x1 = 0.2364	x1 = 0.3281	x1 = 0.4183	x1 = 0.4953	x1 = 0.6252	x1 = 0.7416	x1 = 0.8667	x1 = 1
278.15 K	–	1099.1	655	428	329	294	241.4	208.2	184.2	244
283.15 K	1248.1	726	–	297	230.3	–	–	–	131	169
288.15 K	822	494	311	211.1	165.3	147.5	–	107.1	95.3	120.7
293.15 K	559	346	223.3	–	121.5	108.6	91.7	79.5	–	88.3
298.15 K	391	248.6	164.2	114.9	91.4	81.8	69.5	–	53.8	–
303.15 K	–	183.2	–	87.6	–	62.8	53.7	46.6	–	50.6
308.15 K	206.6	137.9	94.7	68	–	49.2	42.2	36.7	–	39.4
313.15 K	155.3	105.8	73.9	–	43.7	–	33.7	29.3	26.3	31.2
318.15 K	119	82.7	58.7	43.2	35.28	31.69	–	23.81	21.38	25.1
323.15 K	92.7	65.7	–	35.21	28.91	–	22.51	19.58	17.6	20.5
328.15 K	73.5	52.95	–	29.06	23.98	21.58	18.74	–	–	16.89
333.15 K	59.07	43.24	31.98	24.27	20.13	–	15.77	13.7	–	–
338.15 K	–	35.76	–	20.49	17.07	15.33	–	–	10.47	11.89
343.15 K	39.67	29.9	22.63	17.47	14.6	–	11.5	9.98	8.98	10.12
348.15 K	33.08	–	19.32	15.03	–	11.29	–	8.63	–	8.68
353.15 K	27.89	–	16.64	13.04	–	9.81	8.67	7.52	6.75	7.5
358.15 K	23.73	18.56	14.45	11.4	–	–	–	6.59	5.91	6.52
363.15 K	20.39	16.1	12.65	10.04	8.5	7.58	6.72	–	5.21	–
368.15 K	–	–	11.15	8.9	7.55	6.73	5.98	–	4.62	5.01
373.15 K	15.41	12.4	9.89	7.94	6.75	6.01	5.34	–	4.11	–

CC(=O)[O-].CCCC[NH2+]CCO + CCCC[n+]1ccn(C)c1.O=S(=O)([N-]S(=O)(=O)C(F)(F)F)C(F)(F)F
viscosity [mPa·s]
Details	x1 = 0.1012	x1 = 0.2257	x1 = 0.3002	x1 = 0.423	x1 = 0.4998	x1 = 0.6018	x1 = 0.6987	x1 = 0.8008	x1 = 0.901	x1 = 1
278.15 K	–	–	–	–	–	–	–	–	–	6138
283.15 K	–	183.1	226.7	353	481	745	1144.5	–	2806	–
288.15 K	96.2	134.7	–	248.3	331.5	499	745	–	1734.8	2230
293.15 K	74.29	101.5	121.9	179.1	234.7	344	501	765	1109.3	1412.3
298.15 K	58.45	–	92.4	132.2	170.1	243.1	346	–	–	–
303.15 K	46.77	61.09	71.45	99.7	–	176	244.7	–	495	617
308.15 K	38.01	48.63	–	76.6	95.3	130.1	177.2	251.7	343	–
313.15 K	31.32	39.3	44.89	59.83	–	98.1	–	–	–	–
318.15 K	26.13	–	36.38	47.48	57.42	75.3	–	134.2	–	212.7
323.15 K	22.05	26.72	29.87	38.23	45.61	58.7	–	100.8	130.4	155.3
328.15 K	18.81	–	24.83	31.18	36.74	–	58.7	77	–	115.3
333.15 K	16.19	19	20.86	25.75	29.98	37.29	46.37	59.7	74.8	87
338.15 K	14.06	16.27	17.7	21.49	24.74	30.3	–	47.02	58	66.7
343.15 K	12.31	–	15.16	18.12	–	24.92	30.07	37.51	–	–
348.15 K	10.85	12.23	13.09	–	17.4	20.7	24.65	30.28	36.31	40.87
353.15 K	9.63	10.72	11.4	13.24	14.79	17.37	20.42	24.73	–	–
358.15 K	8.6	9.47	–	–	–	14.71	17.08	20.41	23.84	26.29
363.15 K	7.73	8.41	8.82	–	10.96	12.57	14.42	17	19.63	–
368.15 K	6.98	7.51	7.83	8.76	9.54	10.81	12.27	–	16.31	–
373.15 K	6.33	6.75	–	–	–	9.37	10.52	12.11	13.67	–
